Results: patent US12466813B2, “PRC1 inhibitors and methods of treatment therewith” (The Regents of the University of Michigan, priority 2018, dated 2025)

molecular target: T1, RING1B-BMI1 (Homo sapiens, UniProt Q99496); experiment: KD classes of Table A (direct binding to Ring1B-Bmi1); conditions: class given in Table A
T1 sequence (Q99496 1-336): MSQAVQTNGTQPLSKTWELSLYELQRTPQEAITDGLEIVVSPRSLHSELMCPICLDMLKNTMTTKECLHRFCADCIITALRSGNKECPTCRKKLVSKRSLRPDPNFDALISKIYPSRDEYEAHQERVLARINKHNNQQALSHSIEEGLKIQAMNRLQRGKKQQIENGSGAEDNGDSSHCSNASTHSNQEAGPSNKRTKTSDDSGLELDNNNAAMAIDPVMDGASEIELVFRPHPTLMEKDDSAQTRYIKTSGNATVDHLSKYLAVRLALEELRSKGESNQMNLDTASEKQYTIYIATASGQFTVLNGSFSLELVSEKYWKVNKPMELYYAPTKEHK
T1 sequence (P35226 1-326 partner): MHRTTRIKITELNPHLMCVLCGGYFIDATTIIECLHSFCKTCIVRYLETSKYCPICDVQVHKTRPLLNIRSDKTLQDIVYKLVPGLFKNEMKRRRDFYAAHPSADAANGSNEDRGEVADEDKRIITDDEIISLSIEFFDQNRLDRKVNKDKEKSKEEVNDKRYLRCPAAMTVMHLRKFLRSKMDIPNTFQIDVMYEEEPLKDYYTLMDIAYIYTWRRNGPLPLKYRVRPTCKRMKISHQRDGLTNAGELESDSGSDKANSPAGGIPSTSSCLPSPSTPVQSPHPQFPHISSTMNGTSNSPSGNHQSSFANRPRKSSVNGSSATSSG

Kd [µM]	SMILES
< 20	CC(C)c1c(-c2cc(F)cc3[nH]ccc23)[nH]c(C(=O)O)c1-c1cccc2[nH]c(CO)cc12 [compound 189]
< 20	CC(C)c1c(-c2cc(F)cc3[nH]ccc23)[nH]c(C(=O)O)c1-c1cccc2[nH]c(C(N)=O)cc12 [compound 190]
< 20	CC(C)c1c(-c2cc(F)cc3[nH]ccc23)[nH]c(C(N)=O)c1-c1cccc2[nH]c(C(=O)O)cc12 [compound 191]
< 20	COc1cc(-c2c(C(=O)O)[nH]c(-c3cc(F)cc4[nH]ccc34)c2C(C)C)c2cc(CO)[nH]c2c1 [compound 192]
< 20	COc1cc(-c2c(C(=O)O)[nH]c(-c3cc(F)cc4[nH]ccc34)c2C(C)C)c2cc(C)[nH]c2c1 [compound 193]
< 20	CC(C)c1c(-c2cc(F)cc3[nH]ccc23)[nH]c(C(=O)O)c1-c1cccc2[nH]c(-c3nnn[nH]3)cc12 [compound 194]
< 20	CCC(C)c1c(-c2cc(F)cc3[nH]ccc23)[nH]c(C(=O)O)c1-c1cc(OC)cc2[nH]c(CO)cc12 (stereo not drawn) [compound 195]
< 20	CC(C)CCOc1cc(-c2c(C(=O)O)[nH]c(-c3cc(F)cc4[nH]ccc34)c2C(C)C)c2cc[nH]c2c1 [compound 196]
< 20	CC(C)c1c(-c2cc(F)cc3[nH]ccc23)[nH]c(C(=O)O)c1-c1cc(C(=O)O)cc2[nH]ccc12 [compound 197]
< 20	CC(C)c1c(-c2cc(F)cc3[nH]ccc23)[nH]c(C(=O)O)c1-c1cc(C(=O)N2CCCC2)cc2[nH]ccc12 [compound 198]
< 20	CC(C)c1c(-c2cc(F)cc3[nH]ccc23)[nH]c(C(=O)O)c1-c1cc(C(=O)NCC2CC2)cc2[nH]ccc12 [compound 199]
< 20	CC(C)c1c(-c2cc(F)cc3[nH]ccc23)[nH]c(C(=O)O)c1-c1cc(C(=O)NCc2nccs2)cc2[nH]ccc12 [compound 200]
< 20	CC(C)c1c(-c2cc(F)cc3[nH]ccc23)[nH]c(C(=O)O)c1-c1cc(Oc2nccs2)cc2[nH]ccc12 [compound 201]
< 20	CC(C)Cc1cc2c(-c3c(C(=O)O)[nH]c(-c4cc(F)cc5[nH]ccc45)c3C(C)C)cccc2[nH]1 [compound 202]
< 20	CC(C)c1c(-c2cc(F)cc3[nH]ccc23)[nH]c(C(=O)O)c1-c1c[nH]c2ccccc12 [compound 203, 5-(6-fluoro-1H-indol-4-yl)-3-(1H-indol-3-yl)-4-isopropyl-1H-pyrrole-2-carboxylic acid]
< 20	CC(C)c1c(-c2cc(F)cc3[nH]ccc23)[nH]c(C(=O)O)c1-c1cccc2ncsc12 [compound 204]
< 20	CC(C)c1c(-c2cc(F)cc3[nH]ccc23)[nH]c(C(=O)O)c1-c1cccc2ncoc12 [compound 205]
< 20	CC(C)c1c(-c2cc(F)cc3[nH]ccc23)[nH]c(C(=O)O)c1-c1cccc2nc[nH]c12 [compound 206]
< 20	Cc1cc2c(-c3c(C(=O)O)[nH]c(-c4cc(F)cc5[nH]ccc45)c3C(C)C)ccnc2[nH]1 [compound 207]
< 20	Cc1c[nH]c2nccc(-c3c(C(=O)O)[nH]c(-c4cc(F)cc5[nH]ccc45)c3C(C)C)c12 [compound 208]
< 20	Cc1cnc2[nH]ccc2c1-c1c(C(=O)O)[nH]c(-c2cc(F)cc3[nH]ccc23)c1C(C)C [compound 209]
< 20	CC(C)c1c(-c2cc(F)cc3[nH]ccc23)[nH]c(C(=O)O)c1-c1cccc2[nH]c3ccccc3c12 [compound 210]
< 20	CC(C)c1c(-c2cc(F)cc3[nH]ccc23)[nH]c(C(=O)O)c1-c1cccc2[nH]c3c(c12)CCCC3=O [compound 211]
< 20	CC(C)c1c(-c2cc(F)cc3[nH]ccc23)[nH]c(C(=O)O)c1-c1cccc2[nH]c3c(c12)CCC3 [compound 212]

Kd [µM]	SMILES
< 20	CC(C)c1c(-c2cc(F)cc3[nH]ccc23)[nH]c(C(=O)O)c1-c1ccc2c3c1ccn3CCO2 [compound 213]
< 20	CC(C)c1c(-c2cccc3c2ccn3N)[nH]c(C(=O)O)c1-c1cccc2[nH]ccc12 [compound 214]
< 20	CC(C)c1c(-c2cc(F)cc3[nH]ccc23)[nH]c(CC(=O)O)c1-c1cccc2[nH]ccc12 [compound 215]
< 20	CC(C)c1c(-c2cc(F)cc3[nH]ccc23)[nH]c(CCC(=O)O)c1-c1cccc2[nH]ccc12 [compound 216]
< 20	CC(C)c1c(-c2cc(F)cc3[nH]ccc23)[nH]c(S(N)(=O)=O)c1-c1cccc2[nH]ccc12 [compound 217]
< 20	CC(C)c1c(-c2cc(F)cc3[nH]ccc23)[nH]c(S(C)(=O)=O)c1-c1cccc2[nH]ccc12 [compound 218]
< 20	CC(C)c1c(-c2cc(F)cc3[nH]ccc23)[nH]c(CS(N)(=O)=O)c1-c1cccc2[nH]ccc12 [compound 219]
< 20	CC(C)c1c(-c2cc(F)cc3[nH]ccc23)[nH]c(CS(C)(=O)=O)c1-c1cccc2[nH]ccc12 [compound 220]
< 20	CC(C)c1c(-c2cc(F)cc3[nH]ccc23)[nH]c(CCS(N)(=O)=O)c1-c1cccc2[nH]ccc12 [compound 221]
< 20	CC(C)c1c(-c2cccc3c(N)c[nH]c23)[nH]c(C(=O)O)c1-c1cccc2[nH]ccc12 [compound 223]
< 20	CC(C)c1c(-c2cc(F)cc3[nH]ccc23)[nH]c(C(=O)O)c1-c1cccc2[nH]c(-c3nccs3)cc12 [compound 224]
< 20	CC(C)c1c(-c2cc(F)cc3[nH]ccc23)[nH]c(C(=O)O)c1-c1cccc2[nH]c(-c3ccno3)cc12 [compound 225]
< 20	CC(C)c1c(-c2cc(F)cc3[nH]ccc23)[nH]c(C(=O)O)c1-c1cccc2[nH]c(-c3cc(O)no3)cc12 [compound 226]
< 20	CC(C)c1c(-c2cc(F)cc3[nH]ccc23)[nH]c(C(=O)O)c1-c1cccc2[nH]c(S(N)(=O)=O)cc12 [compound 227]
< 20	CC(C)c1c(-c2cc(F)cc3[nH]ccc23)[nH]c(C(=O)O)c1-c1cccc2[nH]c(S(C)(=O)=O)cc12 [compound 228]
< 20	CC(C)c1c(-c2cc(F)cc3[nH]ccc23)[nH]c(C(=O)O)c1-c1cccc2[nH]c(CS(N)(=O)=O)cc12 [compound 229]
< 20	CC(C)c1c(-c2cc(F)cc3[nH]ccc23)[nH]c(C(=O)O)c1-c1cccc2[nH]c(CS(C)(=O)=O)cc12 [compound 230]
< 20	CC(C)c1c(-c2cc(F)cc3[nH]ccc23)[nH]c(C(=O)O)c1-c1cccc2[nH]c(CCS(N)(=O)=O)cc12 [compound 231]
< 20	CC(C)c1c(-c2cc(F)cc3[nH]ccc23)[nH]c(C(=O)O)c1-c1cccc2nc(NS(C)(=O)=O)sc12 [compound 232]
< 20	CC(C)c1c(-c2cc(F)cc3[nH]ccc23)[nH]c(C(=O)O)c1-c1ccnc2[nH]c(-c3nccs3)cc12 [compound 233]
< 20	CC(C)c1c(-c2cc(F)cc3[nH]ccc23)[nH]c(C(=O)O)c1-c1cc(OC2CCCC2)cc2[nH]ccc12 [compound 234]
< 20	CC(C)c1c(-c2cc(F)cc3[nH]ccc23)[nH]c(C(=O)O)c1-c1cc(OC2CCC2)cc2[nH]ccc12 [compound 235]
< 20	CC(C)c1c(-c2cc(F)cc3[nH]ccc23)[nH]c(C(=O)O)c1-c1cc(OC2COC2)cc2[nH]ccc12 [compound 236]
< 20	COCc1ccc2[nH]ccc2c1-c1c(C(=O)O)[nH]c(-c2cc(F)cc3[nH]ccc23)c1C(C)C [compound 237]
